Results on 25 compounds are retold here after ChEMBL document CHEMBL4261569, “Identification of novel N-acetylcysteine derivatives for the treatment of hepatocellular injury” (Medchemcomm, 2017).

Data set [1] deals with L02. Briefly: Cytoprotection against H2O2 induced cytotoxicity in human LO2 cells assessed as decrease in MDA level at 100 mmol after 15 mins by lipid oxidation assay. The class given is functional, cell-based.
For data set [2], the system named is L02. Briefly: Cytoprotection against H2O2 induced cytotoxicity in human LO2 cells assessed as increase in cell viability preincubated for 24 hrs followed by H2O2 addition measured after 6 hrs by CCK-8 assay. In kind it is functional, cell-based. On the technique in general: Tetrazolium assays rely on reduction of a dye to a coloured formazan, in cell work by metabolically active cells.

Data set [3] concerns L02. Briefly: Cytoprotection against APAP induced cytotoxicity in human LO2 cells assessed as increase in cell viability preincubated for 24 hrs followed by […] hrs by CCK-8 assay. The class given is functional, cell-based.
In data set [4] the test system is L02. Briefly: Cytoprotection against APAP induced cytotoxicity in human LO2 cells assessed as decrease in MDA level at 100 mmol after 15 mins by lipid oxidation assay. The class given is functional, cell-based.
Data set [5] is described as follows: Apparent permeability across apical to basolateral side in human Caco2 cells at 10 uM after 1.5 hrs by LC-MS/MS analysis. In kind it is ADME, cell-based. As to conditions: Caco-2. Background: Caco-2 monolayers are a common model of the intestinal barrier.
A short description of data set [6]: Apparent permeability across basolateral to apical side in human Caco2 cells at 10 uM after 1.5 hrs by LC-MS/MS analysis. In kind it is ADME, cell-based. As to conditions: Caco-2.
Data set [7] can be described thus: Drug excretion in iv dosed human. As to conditions: in vivo, read-out: Drug excretion. The class given is ADME, organism-based.
Data set [8] can be described thus: Oral bioavailability in human. In kind it is ADME, organism-based. As to conditions: in vivo.
Data set [9] can be described thus: Terminal half life in iv dosed human plasma. The class given is ADME, organism-based. As to conditions: read-out: beta t1/2 (converted).
Data set [10] concerns L02. Briefly: Cytotoxicity against human LO2 cells assessed as reduction in cell viability after 24 hrs by CCK-8 assay. The class given is cell-based. As to conditions: l02, 24 h.
The nature of data set [11]: Terminal half life in Sprague-Dawley rat at 20 mg/kg, po by LC-MS/MS analysis. As to conditions: in vivo, read-out: beta t1/2 (converted). In kind it is ADME, organism-based.
The nature of data set [12]: Cmax in Sprague-Dawley rat at 10 mg/kg, iv or 20 mg/kg, po by LC-MS/MS analysis. In kind it is ADME, organism-based. As to conditions: in vivo.
Data set [13] is described as follows: AUC in Sprague-Dawley rat at 10 mg/kg, iv or 20 mg/kg, po by LC-MS/MS analysis. The class given is ADME, organism-based. As to conditions: in vivo.
Data set [14] in a line: Efflux ratio of apparent permeability across basolateral to apical side over apical to basolateral side in human Caco2 cells at 10 uM after 1.5 hrs by LC-MS/MS analysis. The class given is ADME, cell-based. As to conditions: Caco-2.
The nature of data set [15]: Oral bioavailability in Sprague-Dawley rat at 20 mg/kg by LC-MS/MS analysis. The class given is ADME, organism-based. As to conditions: in vivo.

The structures appear in SMILES notation. Activity calls are given as the source filed them. The rule behind the calls is not given here. A value given as a limit tells only on which side of the number the result lay.

As to `CSC[C@H](NC(=O)c1ccc(F)cc1)C(=O)O`, the result in the data set with L02 [1] and in the data set with L02 [2] was Active.

For `CCC(=O)N[C@@H](CSC)C(=O)OC`, in the data set with L02 [2], the outcome was inactive.

Regarding `CSC[C@H](NC(C)=O)C(=O)Nc1ccccc1`, the outcome with L02 [1], in the data set with L02 [2] and in the data set with L02 [4] was Active. Besides, the result in the data set with L02 [3] was inactive.

By Papp A→B is commonly meant the apparent permeability from the apical to the basolateral side of a cell layer. As a reminder, the Papp B→A is the apparent permeability from the basolateral to the apical side of a cell layer. A word on the bioavailability: it is the share of a dose that reaches the circulation, judged against a reference dose that is usually intravenous. A low value points to poor availability. As for `CC(=O)N[C@@H](CS)C(=O)O` [ACETYLCYSTEINE], the outcome in the data set with L02 [1] and with L02 [4] was Active. Also, the Papp A→B at 1.5 h, 10 µM in data set [5] was less than 1.09 ×10⁻⁶ cm/s. For the same compound, in data set [6], the Papp B→A at 1.5 h, 10 µM is less than 0.61 ×10⁻⁶ cm/s. Moreover, in [7], the dose excreted was determined as 30%. In [8], this compound returned a bioavailability of less than 5%. Moreover, the half-life in data set [9] is 5.6 h.

For the compound `CSC[C@H](NC(=O)c1ccccc1)C(=O)NC1CCCCC1`, the result with L02 [2] was Active.

As to `CSC[C@H](NC(=O)C1CCCCC1)C(=O)OC(C)(C)C`, the Activity result in the data set on L02 [10] is given as “Toxic”. For the same compound, in the data set with L02 [2], the outcome was inactive.

As to `COC(=O)[C@H](CSC)NC(=O)c1ccccc1`, the outcome with L02 [2] was inactive.

`COC(=O)[C@H](CSC)NC(C)=O`: the outcome in the data set with L02 [2] was inactive.

With `COC(=O)[C@H](CSC)NC(=O)c1ccc(F)cc1`, the outcome with L02 [2] was inactive.

Take `CSC[C@H](NC(=O)C1CCCCC1)C(=O)O`: the outcome in the data set with L02 [1] and with L02 [2] was Active.

Consider `CSC[C@H](NC(=O)c1ccccc1)C(=O)Nc1ccccc1`, for which the result in the data set on L02 [2] was Active.

Take `CSC[C@H](NC(C)=O)C(=O)OC(C)(C)C`: the Activity entry in the data set on L02 [10] was “Toxic”. In the data set with L02 [2], the result was inactive.

Consider `CCC(=O)N[C@@H](CSC)C(=O)OC(C)(C)C`, for which, in the data set with L02 [10], the Activity result was “Toxic”. Besides, the result with L02 [2] was inactive.

For the compound `CSC[C@H](NC(C)=O)C(=O)O`, the outcome in the data set with L02 [1] and with L02 [2] was Active.

For the compound `CNC(=O)[C@H](CSC)NC(=O)C1CCCCC1`, the result with L02 [1] and in the data set on L02 [2] was Active.

As for `CSC[C@H](NC(=O)c1ccc(F)cc1)C(=O)OC(C)(C)C`, the Activity entry with L02 [10] is recorded as “Toxic”. Further, in the data set on L02 [2], the result was inactive.

With `CSC[C@H](NC(=O)c1ccccc1)C(=O)OC(C)(C)C`, in the data set on L02 [10], the Activity result is recorded as “Toxic”. In addition, the outcome in the data set with L02 [2] was inactive.

Consider `CCC(=O)N[C@@H](CSC)C(=O)NC`, for which the outcome in the data set with L02 [2] was Active.

Consider `CSC[C@H](NC(=O)c1ccccc1)C(=O)O`, for which the outcome in the data set on L02 [1] and in the data set on L02 [2] was Active.

Usually Cmax stands for the highest concentration seen after dosing. As a reminder, the AUC is the area under the concentration-time curve, a measure of exposure. Lower therefore signals low exposure. By efflux ratio is commonly meant the permeability from basolateral to apical divided by that in the opposite direction, in the common usage. As for `CSC[C@H](NC(C)=O)C(=O)NC1CCCCC1`, the result in the data set on L02 [1], with L02 [3], in the data set with L02 [2] and with L02 [4] was Active. Also, the half-life in [11] is 5.62 h. The Papp A→B at 1.5 h, 10 µM in [5] is 19.7 ×10⁻⁶ cm/s. In data set [12], this compound came in with a Cmax of 2140 ng/mL. Also, the Papp B→A at 1.5 h, 10 µM in data set [6] was found to be 21.8 ×10⁻⁶ cm/s. Further, in data set [13], the AUC was determined as 3080 ng·h/mL. Besides, the efflux ratio at 1.5 h, 10 µM in [14] was found to be 1.11. This compound also yielded a bioavailability in data set [15] of 52.8%.

As to `CCC(=O)N[C@@H](CSC)C(=O)O`, the result in the data set on L02 [1] and with L02 [2] was Active.

Consider `CNC(=O)[C@H](CSC)NC(=O)c1ccccc1`, for which the result with L02 [1] was inactive. Further, in the data set with L02 [2], the outcome was Active.

With `CCC(=O)N[C@@H](CSC)C(=O)Nc1ccccc1`, the result in the data set on L02 [2] was Active.

On to `COC(=O)[C@H](CSC)NC(=O)C1CCCCC1`, for which the result in the data set on L02 [2] was inactive.

Consider `CCC(=O)N[C@@H](CSC)C(=O)NC1CCCCC1`, for which the result in the data set on L02 [1], in the data set with L02 [3], with L02 [2] and in the data set on L02 [4] was Active.
